Key:
[1] = test system: trans-differentiated hepatic stem cells; experiment: Insulin content and secretion by immunoprecipitation and Western blotting; assay type: cell-based, rat
Method: Measurement of insulin content and secretion by immunoprecipitation and Western blotting. Confluent cultures of trans-differentiated hepatic stem cells were maintained in RPMI 1640 plus 10% fetal calf serum in the presence or absence of 10 mM nicotinamide for 7 days. The cells were then switched to serum-free medium containing 0.5% BSA for 5 hrs, washed twice with serum-free medium, then stimulated with an additional 17.5 mM glucose for 2 hrs. The culture medium was collected and stored at −70° C. for assay of secreted insulin. Intracellular insulin was extracted with lysis buffer. The presence of insulin in the culture media and cell lysates was determined by immunoprecipitation with anti-rabbit-insulin polyclonal antibodies (Santa Cruz Biotechnology), followed by separation of the precipitated material by 18% SDS-PAGE, transfer to nylon membrane, and blotting with anti-insulin antibodies as described (Yang, et al., J. Biol. Chem. 269:7156–7162, 1994). Cell lysates (150 μg) or culture media (1 ml) from each culture were used for the immunoprecipitation. Normal rabbit serum was used as primary antibody control, and culture medium containing 0.5% BSA was used as a control for secreted insulin measurements. […] Insulin content in cells and in the media was determined by pooling cell lysates and culture medium from three separate cultures.

hepatic stem cells = experiment: Morphology of spheroid cell clusters in high-glucose hepatic stem cell cultures; assay type: cell-based, rat; conditions: five to seven days in 10 mM nicotinamide, high glucose (23 mM) culture
Method: To induce trans-differentiation, the cells were replated and cultured in RPMI 1640 medium supplemented with 10% FCS and 17.5 mM (23 mM final concentration) glucose. After about two months, scattered small spheroid cell clusters began to form on top of the confluent cell monolayer. Individual spheroids from these cell cultures were selected for clonal passage and were subjected several times to the high glucose (23 mM) culturing process described above. The resultant cells reached confluence, and by day 14 formed additional clusters when maintained under the high glucose conditions. […] Multiple clusters also became connected by duct-like structures.

NC(=O)c1cccnc1 [nicotinamide]
increase of insulin in cell lysates versus untreated cells (densitometric analysis) ([1]; 10 mM nicotinamide for 7 days before stimulation with additional 17.5 mM glucose for 2 hrs, cell lysates): 3.4 times | levels of insulin detected in cell lysates and secreted into culture medium ([1]; growth in nicotinamide before glucose stimulation, Western blot, FIG. 2): increased | number and dimension of spheroid cell clusters (hepatic stem cells): markedly increased

From US7029915B2, “Method for differentiating rat hepatic stem cells to insulin-producing cells” (University of Florida Research Foundation, Inc., priority 2002, dated 2006)
